Results taken from patent EP3566700A1, “AMBROXOL FOR DNA DAMAGE REPAIR DISEASE THERAPIES” (Universitat Autònoma de Barcelona, priority 2018, dated 2019).

How the values were obtained:
[1] = system: Fanca-deficient mice; experiment: Telomere fluorescence analysis on spleen tissue sections by Q-FISH; assay type: in vivo; details: for telomere length: compared with control treatment (water)
Description: (§1) Fanca-deficient mice strain was Fanca^tm1Faw and genetic background 129P2/OlaHsd * FVB with exon deletion 4-7 (c.f. Cheng NC et al., "Mice with a targeted disruption of the Fanconi anemia homolog Fanca", Hum Mol Genet. 2000, vol. 9(12), pp. 1805-11). 30 male mice were randomized by age (12 to 16 weeks) and weight (25 grams on average) in three experimental groups (water, NAC and AMB).
(§2) NAC (40mM) (used for comparative purposes) and Ambroxol (1mM) were administered in drinking water (filtered and UV irradiated) ad libitum. To monitor MN on blood cells (erythrocytes and reticulocytes) mice were tail bleeded on weeks 1, 2, 4, 6, 8, 12, 16 and 24. Hematological parameters and blood counts were also evaluated. At the end of the study mice were euthanized and bone marrow, blood and organ samples (spleen, lung, and liver) collected.
Quantitative telomere fluorescence in situ hybridization (Q-FISH) was performed directly on spleen tissue sections as previously described (c.f. Flores I et al., "The longest telomeres: a general signature of adult stem cell compartments", Genes Dev. 2008; vol. 22(5), pp. 654-67). Spleen tissue was hybridized with the PNA telomeric oligonucleotide (CCCTTA)3 labeled with Cy3 (PE Biosystems). After that, digital images were acquired.
Confocal microscopy was performed at room temperature with a laser-scanning microscope (TSC SP5) using a Plan Apo 63Å-1.40 NA oil immersion objective (HCX). Maximal projection of z-stack images generated using advanced fluorescence software (LAS) was analyzed with Definiens XD software package. DAPI images were used to detect telomeric signals inside each nucleus. To study telomere length, average intensity of individual telomeres of around 940 nuclei per mouse was analyzed. To study short telomeres, intensity of around 31,000 individual telomeres was studied per mouse. A total of 7 mice were studied in the control group and 10 mice in NAC or Ambroxol groups.

[2] = system: FANCD2 ubiquitination; experiment: FANCD2 ubiquitination by Western blotting; assay type: cell-based, human; details: two FANCA-deficient lymphoblastoid cell lines
Description: To disregard a direct effect on FA/BRCA pathway, FANCD2 ubiquitination was analyzed by Western blotting in two different FANCA-deficient lymphoblastoid cell lines.

[3] = system: FANCA-deficient lymphoblastoid cell lines; experiment: FCM assay: cell cycle analysis (cells in G2/M phase); assay type: cell-based, human; details: three FANCA-deficient cell lines; basal around 20% without treatment
[4] = system: Fanca-deficient mice; experiment: Histopathology study of spleen, liver and lung; assay type: in vivo
Description: as §1, §2
A total of 7 mice were studied in the placebo (water) group and 10 mice in the NAC or Ambroxol treated groups. Samples (spleen, liver and lung) were fixed overnight in 10 % neutral buffered formalin, embedded in paraffin, sectioned in 3 µm thick and dried. Slides were dewaxed and re-hydrated through a series of graded ethanol until water and finally stained with hematoxilin-eosin (H-E). Photographs were taken using an Olympus DP73 digital camera and a Vanox AHBS3 Olympus microscope.

[5] = system: Fanca-deficient mice; experiment: Chronic treatment of Fanca-deficient mice: survival and general health; assay type: in vivo
Description: as §1, §2

[6] = affected mice/mice studied, H2O 0/7
[7] = affected mice/mice studied, H2O 1/7
[8] = affected mice/mice studied, H2O 2/7

Compound: Nc1c(Br)cc(Br)cc1CN[C@H]1CC[C@H](O)CC1 [Ambroxol, trans-4-(2-amino-3,5-dibromobenzylamino)cyclohexanol]
- improvement in telomere's length with respect to NAC ([1]; one year of treatment): about 5 fold
- telomere length ([1]; one year of treatment): significant increase
- length of short telomeres ([1]; untreated versus Ambroxol treated mice): significantly shorter in untreated mice
- proportion of short telomeres respect the total number of telomeres ([1]; untreated versus treated mice): significantly bigger in untreated mice
- FANCD2 ubiquitination [2]: unable to restore FANCD2 ubiquitination
- percentage of cells in G2/M phase in basal conditions [3]: lowered this percentage
- Liver, Light/moderate: Steatosis [4, 6]: 2/10
- Lung, Light/moderate: Pleuritis [4, 6]: 1/10
- Liver, Light/moderate: Vascular congestion [4, 7]: 1/10
- Liver, Severe: Multiple myeloid precursor infiltration [4, 7]: 0/10
- Lung, Light/moderate: BALT activation [4, 7]: 1/10
- Lung, Light/moderate: Fibrosis [4, 7]: 0/10
- Lung, Light/moderate: Interstitial pneumonia [4, 7]: 5/10
- Lung, Severe: General vascular congestion [4, 7]: 0/10
- Lung, Severe: Myeloid-shape cellullar embolism [4, 7]: 0/10
- Lung, Severe: Osseous metaplasia [4, 7]: 0/10
- Spleen, Light/moderate: Lymphoid hyperplasia [4, 7]: 3/10
- Liver, Severe: Vesicular steatosis [4, 8]: 0/10
- Spleen, Severe: Spleen hyperplasia (likely linfoma) [4, 8]: 0/10
- Liver, Light/moderate: Chronic hepatitis (perivascular) ([4]; affected mice/mice studied, H2O 3/7): 7/10
- severe organ defects ([4]; end of experiment (1 year)): no severe organ defects
- survival at the end of the experiment ([5]; 1 year, Ambroxol 1mM in drinking water ad libitum, 40 % of control mice alive): All mice from the Ambroxol group were alive and healthy
- general health condition and survival ([5]; related to untreated mice): improvement

Compound: CC(=O)N[C@@H](CS)C(=O)O [NAC, N-acetylcysteine]
- telomere length ([1]; one year of treatment): modest improvement
